In patent US8129514B2, “Nucleotide sequences for regulating gene expression in plant trichomes and constructs and methods utilizing same” (Evogene Ltd., priority 2003, dated 2012):
Marks after values point to notes of the source that are not given here.

Tests used:
PPO [1] = conditions: positive control at 200 mM; PPO harvested from trichome cells; cited from earlier work
PPO [2] = test: Decrease of PPO activity (browning of supernatant) by antioxidants in ground tomato leaves; assay type: biochemical, Tomato (L. esculentum); conditions: for Efficient concentration (minimal concentration that enables a decrease of 95% of PPO activity): w/v, 10 mM Tris-HCl pH=8, about 2 hrs at 4° C.
Procedure: Three compounds were tested: citric acid, ascorbic acid and sodium bisulfite. Different concentrations of chemicals were used to identify the chemical with the highest antioxidant activity. Tomato (L. esculentum) young leaves (about 100 mg) were grinded at 4° C. in 200 μl of 10 mM Tris-HCl pH=8 buffer containing appropriate concentration of antioxidant (0.01-2.0% w/v), incubated for about 2 hrs at 4° C. and centrifuged at 14,000 rpm for 3 min in order to separate leaves-debris and liquid fraction. Decreasing of PPO activity was inspected by eliminating the production of brown color of the supernatant as a result of the oxidation of polyphenols. Table 8 below summarizes the minimal concentration that enables a decrease of 95% of PPO activity.
A buffer without any antioxidant was used as a negative control.

tomato trichome = test: GUS staining of leaves of T1 tomato plants carrying promoter-GUS constructs; assay type: in vivo, tomato (Lycopersicon esculentum cv. Micro-Tom)
Procedure: Tomato transformation—Tomato transformation was carried out according to Fillati et al. (19). Briefly, Lycopersicon esculentum cv. Micro-Tom cotyledons were used for Agrobacterium based plant transformation. The Micro-Tom seeds were surface sterilized for 10 min in a 3% sodium hypochlorite solution. The seeds were washed with DDW three times and soaked for three hours in fresh DDW, then plated into 0.5 L container with Nitsch medium, containing MS salts, 3% sucrose, Nitsch vitamins and 0.8% plant agar (Duchefa, Netherland). The PH was adjusted to 5.8 prior to autoclaving for 20 min at 121° C. 50 seeds where plated on 0.5 L sterilized container containing the germination medium and left at 25° C. in culture room, 16/8 hrs light/dark cycles, under light intensity of (150 μEm^−2S). Seedlings where grown for 8 days.
A. GUS staining—Gus staining of tomato and tobacco plants was effected as previously described (15). Briefly: Leaves were fixed in 90% ice cold acetone for 15-20 minutes (on ice), followed by removal of acetone and a double tissue rinsing with the Working Solution [25 mM Sodium Phosphate (Sigma, USA) buffer pH=7, Ferricyanide (Sigma, USA) 1.25 mM, Ferrocyanide (Sigma, USA) 1.25 mM, Triton X-100 (Sigma, USA) 0.25%, EDTA (BioLab) 0.25 mM] for 15-20 minutes. Rinse solution was removed, replaced with Staining solution [Working solution with 5-bromo-4-chloro-3-indolyl-β-D-glucuronic acid (X-GlcA, Duchefa) solubilized in N,N-Dimethylformamide (BioLab) 1.5 mg/ml and Dithiothreitol (DTT, Bio Lab) 100 mM] and incubated in the dark (tubes wrapped with aluminum foil) over night at 37° C. Distaining was effected by sinking the plant tissue in 70% ethanol and heating at 50° C. for ˜2 hours. The distaining step was repeated until the plant tissue became transparent except the blue stained regions. Distained plants were stored in 70% ethanol (BioLab) at room temperature.
GUS staining was performed on leaves of T1 tomato and tobacco plants transfected with a binary vector including putative trichome specific promoters upstream of a GUS gene. […]

In the case of `O[C@H](CS)[C@H](O)CS` (racemic) [DDT, Dithiothreitol], the PPO activity (PPO [1]) is listed as “eliminate PPO activity”.

With `O=C1O[C@H]([C@@H](O)CO)C(O)=C1O` [Ascorbic acid] the “Efficient concentration (minimal concentration that enables a decrease of 95% of PPO activity)” value (PPO [2]) was 1.0%*.

In the case of `O=C(O)CC(O)(CC(=O)O)C(=O)O` [Citric acid], the “Efficient concentration (minimal concentration that enables a decrease of 95% of PPO activity)” value (PPO [2]) is reported as 1.0%.

In the case of `O=S([O-])O.[Na+]` [Sodium bisulfite], the “PPO activity as indicated by medium browning” value (PPO [2]; increasing concentrations, FIG. 3) is reported as “decreased PPO activity” and the “Efficient concentration (minimal concentration that enables a decrease of 95% of PPO activity)” value (PPO [2]) is reported as 0.05%.

B1: TR27-P: previously described cotton promoter, G. barbadense var. Pima 15, SEQ ID NO: 39 (nucleic acid)
DNA: AAGCTTTAAGTTTAAATCCTATTGTAGTGTTATTTATAAAAAAAATGAGAAAAGATAAAAATACCTTTATATTAATATTTGTTATATTATAAAATAAGGATATTTTTAACAAATTTTCAATTGAATAGATGTTTGGGTGAATCCTAATACCAATTAAAGTATATATACAGCAAACAATTATAAATCAAATTACTTTTAATAAAATGCTATCATTCAATTCAATGACAATAAATGCATTTATAAATACATCAAATGTAAATCTCATGTTTATAAGAAAACACGTAGAAAAAAAGTTAAACCAATATTTGAGTCCTAGCTGTGGAGGCATGATTGAGTGAAATCAAATGGACGCTGGTTTTAATTCTATTGAAAGAAACCAATAATCACGTAGGTTGGCAGTTGAACATAATTGAATGGTCTCAACTTTTAATGTGGTGTTAATGTTTGGATCGGATAATCTCAACTTACCTAATAGCTAGGAAAGTAAAATTCAAACATCACCCGCTACTACTTTTGGCTATAAAAACCCTCCTACCCTCAAGCCCTAACCACGACAATCACCAATAGTACTACTACTCCAAGCAAGTATTTTCCTTACACGTTTGTTTTTCTTGTGATAATGGATCC
modifications: Gossypium barbadense
With B1 the Avg grade (tomato trichome; GUS staining, tomato T1 generation, signal peptide: No) was 0.4, the GUS expression pattern (tomato trichome; GUS under the regulation of the promoter, FIGS. 1d-h) was “expressed in a trichome-gland specific manner” and the “effectiveness in facilitating expression of heterologous genes in the tomato trichome” value (tomato trichome; conclusion from Table 6) was “most effective”.
